Laboratory results: patent US11229623B2 (GlaxoSmithKline Intellectual Property (No.2) Limited, priority 2016, dated 2022)
pIC50: −log10 of the molar value.

Molecular target: T1, human TRPV4 (Homo sapiens, UniProt Q9HBA0)
T1 construct: expressed in transfected cells; host or cells: BHK/AC9 cells transduced with BacMam virus
Experiment: FLIPR assay for hTRPV4 expressed in BHK cells: inhibition of Agonist Compound-induced calcium signal
Assay type: cell-based
Conditions: hTRPV4 in BHK/AC9 cells, FLIPR calcium signal, agonist at EC80; reported as range class; read-out: IC50
In short: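 Calcium influx through TRPV4 tracked by Fluo-4 fluorescence on FLIPR. Cells: BHK/AC9 transduced with BacMam-hTRPV4 at MOI 78, 24 h culture post-plating (15,000 cells/well). Dye loading: 2 μM Fluo-4 AM with 500 μM Brilliant Black quencher, 1-1.5 h, room temperature, dark.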

T1 sequence (Q9HBA0 whole entry): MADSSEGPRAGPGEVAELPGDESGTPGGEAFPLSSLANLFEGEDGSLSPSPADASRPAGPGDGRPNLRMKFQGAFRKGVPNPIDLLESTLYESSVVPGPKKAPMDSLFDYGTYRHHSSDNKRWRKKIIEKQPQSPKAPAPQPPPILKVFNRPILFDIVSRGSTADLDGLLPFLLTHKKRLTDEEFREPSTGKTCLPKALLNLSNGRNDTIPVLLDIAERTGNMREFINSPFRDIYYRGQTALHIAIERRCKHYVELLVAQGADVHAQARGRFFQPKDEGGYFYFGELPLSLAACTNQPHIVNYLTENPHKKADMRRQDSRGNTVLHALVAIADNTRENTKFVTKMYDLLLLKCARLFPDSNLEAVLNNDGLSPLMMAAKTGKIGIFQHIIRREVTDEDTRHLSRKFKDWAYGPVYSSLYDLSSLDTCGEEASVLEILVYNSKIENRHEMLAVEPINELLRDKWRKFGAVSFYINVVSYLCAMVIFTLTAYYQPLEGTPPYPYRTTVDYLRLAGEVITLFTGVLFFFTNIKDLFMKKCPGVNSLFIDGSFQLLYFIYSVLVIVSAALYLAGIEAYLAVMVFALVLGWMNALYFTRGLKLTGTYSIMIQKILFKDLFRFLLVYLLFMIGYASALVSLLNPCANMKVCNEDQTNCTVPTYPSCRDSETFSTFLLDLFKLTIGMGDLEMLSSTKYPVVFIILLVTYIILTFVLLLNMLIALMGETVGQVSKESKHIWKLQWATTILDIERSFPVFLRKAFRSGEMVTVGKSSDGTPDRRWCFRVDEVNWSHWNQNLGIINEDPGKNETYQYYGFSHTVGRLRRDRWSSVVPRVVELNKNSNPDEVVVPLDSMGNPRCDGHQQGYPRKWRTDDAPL

Row | SMILES | pIC50
1 | N#Cc1cc(C(F)(F)F)ccc1S(=O)(=O)N1C[C@H](Oc2ccc(C(F)(F)F)cc2)[C@@](O)(CO)C1 [Example 148, 2-(((3S,4S)-3-hydroxy-3-(hydroxymethyl)-4-(4-(trifluoromethyl)phenoxy)pyrrolidin-1-yl)sulfonyl)-5-(trifluoromethyl)benzonitrile] | 7.00 to 8.00
2 | N#Cc1cc(F)ccc1S(=O)(=O)N1C[C@H](Oc2ccc(C(F)(F)F)cc2)[C@@](O)(CO)C1 [Example 149, 5-fluoro-2-(((3S,4S)-3-hydroxy-3-(hydroxymethyl)-4-(4-(trifluoromethyl)phenoxy)pyrrolidin-1-yl)sulfonyl)benzonitrile] | 7.00 to 8.00
3 | N#Cc1cc(Cl)ccc1S(=O)(=O)N1C[C@H](Oc2ccc(Cl)cc2)[C@@](O)(CO)C1 [Example 151, 5-chloro-2-(((3S,4S)-4-(4-chlorophenoxy)-3-hydroxy-3-(hydroxymethyl)pyrrolidin-1-yl)sulfonyl)benzonitrile] | 8.00 to 10.00
4 | N#Cc1cc(Cl)ccc1S(=O)(=O)N1C[C@H](Oc2ccc(C(F)(F)F)cc2)[C@@](O)(CO)C1 [Example 152, 5-chloro-2-(((3S,4S)-3-hydroxy-3-(hydroxymethyl)-4-(4-(trifluoromethyl)phenoxy)pyrrolidin-1-yl)sulfonyl)benzonitrile] | 8.00 to 10.00
5 | N#Cc1cc(F)ccc1S(=O)(=O)N1C[C@H](Oc2ccc(C(F)(F)F)cc2)[C@](O)(CO)C1 [Example 153, 5-fluoro-2-(((3R,4S)-3-hydroxy-3-(hydroxymethyl)-4-(4-(trifluoromethyl)phenoxy)pyrrolidin-1-yl)sulfonyl)benzonitrile] | 8.00 to 10.00
6 | N#Cc1cc(Cl)ccc1S(=O)(=O)N1C[C@H](Oc2ccc(Cl)cc2)[C@](O)(CO)C1 [Example 154, 5-chloro-2-(((3R,4S)-4-(4-chlorophenoxy)-3-hydroxy-3-(hydroxymethyl)pyrrolidin-1-yl)sulfonyl)benzonitrile] | 8.00 to 10.00
7 | N#Cc1cc(Cl)ccc1S(=O)(=O)N1C[C@H](Oc2ccc(C(F)(F)F)cc2)[C@](O)(CO)C1 [Example 156, 5-chloro-2-(((3R,4S)-3-hydroxy-3-(hydroxymethyl)-4-(4-(trifluoromethyl)phenoxy)pyrrolidin-1-yl)sulfonyl)benzonitrile] | 8.00 to 10.00
8 | COc1cc(C#N)c(F)cc1O[C@H]1CN(S(=O)(=O)c2ccc(C(F)(F)F)cc2C#N)C[C@@]1(O)CO [Example 158, 4-(((3S,4R)-1-((2-cyano-4-(trifluoromethyl)phenyl)sulfonyl)-4-hydroxy-4-(hydroxymethyl)pyrrolidin-3-yl)oxy)-2-fluoro-5-methoxybenzonitrile] | 8.00 to 10.00
9 | CCOc1cc(C#N)c(F)cc1O[C@H]1CN(S(=O)(=O)c2ccc(C(F)(F)F)cc2C#N)C[C@@]1(O)CO [Example 159, 4-(((3S,4R)-1-((2-cyano-4-(trifluoromethyl)phenyl)sulfonyl)-4-hydroxy-4-(hydroxymethyl)pyrrolidin-3-yl)oxy)-5-ethoxy-2-fluorobenzonitrile] | 8.00 to 10.00
10 | CCCOc1cc(C#N)c(F)cc1O[C@H]1CN(S(=O)(=O)c2ccc(C(F)(F)F)cc2C#N)C[C@@]1(O)CO [Example 160, 4-(((3S,4R)-1-((2-cyano-4-(trifluoromethyl)phenyl)sulfonyl)-4-hydroxy-4-(hydroxymethyl)pyrrolidin-3-yl)oxy)-2-fluoro-5-propoxybenzonitrile] | 8.00 to 10.00
11 | N#Cc1cc(O)c(O[C@H]2CN(S(=O)(=O)c3ccc(C(F)(F)F)cc3C#N)C[C@@]2(O)CO)cc1F [Example 162, 4-(((3S,4R)-1-((2-cyano-4-(trifluoromethyl)phenyl)sulfonyl)-4-hydroxy-4-(hydroxymethyl)pyrrolidin-3-yl)oxy)-2-fluoro-5-hydroxybenzonitrile] | 8.00 to 10.00
12 | CCCCOc1cc(C#N)c(F)cc1O[C@H]1CN(S(=O)(=O)c2ccc(C(F)(F)F)cc2C#N)C[C@@]1(O)CO [Example 164, 5-butoxy-4-(((3S,4R)-1-((2-cyano-4-(trifluoromethyl)phenyl)sulfonyl)-4-hydroxy-4-(hydroxymethyl)pyrrolidin-3-yl)oxy)-2-fluorobenzonitrile] | 8.00 to 10.00
13 | CC(C)COc1cc(C#N)c(F)cc1O[C@H]1CN(S(=O)(=O)c2ccc(C(F)(F)F)cc2C#N)C[C@@]1(O)CO [Example 165, 4-(((3S,4R)-1-((2-cyano-4-(trifluoromethyl)phenyl)sulfonyl)-4-hydroxy-4-(hydroxymethyl)pyrrolidin-3-yl)oxy)-2-fluoro-5-isobutoxybenzonitrile] | 8.00 to 10.00
14 | N#Cc1ccc(O[C@H]2CN(S(=O)(=O)c3ccc(C(F)(F)F)cc3C#N)C[C@@]2(O)CO)c(OCC(F)(F)F)c1 [Example 167, 2-(((3R,4S)-4-(4-cyano-2-(2,2,2-trifluoroethoxy)phenoxy)-3-hydroxy-3-(hydroxymethyl)pyrrolidin-1-yl)sulfonyl)-5-(trifluoromethyl)benzonitrile] | 8.00 to 10.00
15 | N#Cc1ccc(O[C@H]2CN(S(=O)(=O)c3ccc(C(F)(F)F)cc3C#N)C[C@@]2(O)CO)c(O)c1 [Example 168, 2-(((3R,4S)-4-(4-cyano-2-hydroxyphenoxy)-3-hydroxy-3-(hydroxymethyl)pyrrolidin-1-yl)sulfonyl)-5-(trifluoromethyl)benzonitrile] | 7.00 to 8.00
16 | CCCCOc1cc(C#N)ccc1O[C@H]1CN(S(=O)(=O)c2ccc(C(F)(F)F)cc2C#N)C[C@@]1(O)CO [Example 169, 2-(((3R,4S)-4-(2-butoxy-4-cyanophenoxy)-3-hydroxy-3-(hydroxymethyl)pyrrolidin-1-yl)sulfonyl)-5-(trifluoromethyl)benzonitrile] | 8.00 to 10.00
17 | CC(C)COc1cc(C#N)ccc1O[C@H]1CN(S(=O)(=O)c2ccc(C(F)(F)F)cc2C#N)C[C@@]1(O)CO [Example 170, 2-(((3R,4S)-4-(4-cyano-2-isobutoxyphenoxy)-3-hydroxy-3-(hydroxymethyl)pyrrolidin-1-yl)sulfonyl)-5-(trifluoromethyl)benzonitrile] | 8.00 to 10.00
18 | N#Cc1ccc(O[C@H]2CN(S(=O)(=O)c3ccc(C(F)(F)F)cc3C#N)C[C@@]2(O)CO)c(OCc2ccccc2)c1 [Example 171, 2-(((3R,4S)-4-(2-(benzyloxy)-4-cyanophenoxy)-3-hydroxy-3-(hydroxymethyl)pyrrolidin-1-yl)sulfonyl)-5-(trifluoromethyl)benzonitrile] | 8.00 to 10.00
19 | N#Cc1cc(OCC(F)(F)F)c(O[C@H]2CN(S(=O)(=O)c3ccc(C(F)(F)F)nc3)C[C@@]2(O)CO)cc1F [Example 175, 2-fluoro-4-(((3S,4R)-4-hydroxy-4-(hydroxymethyl)-1-((6-(trifluoromethyl)pyridin-3 yl)sulfonyl)pyrrolidin-3-yl)oxy)-5-(2,2,2-trifluoroethoxy) benzonitrile] | 7.00 to 8.00

Next, values leading:

Row | pIC50 | SMILES
20 | 7.00 to 8.00 | N#Cc1ccc(S(=O)(=O)N2C[C@H](Oc3ccc(C(F)(F)F)cc3)[C@](O)(CO)C2)c(Cl)c1 [Example 150, 3-chloro-4-(((3R,4S)-3-hydroxy-3-(hydroxymethyl)-4-(4-(trifluoromethyl)phenoxy)pyrrolidin-1-yl)sulfonyl)benzonitrile]
21 | 8.00 to 10.00 | N#Cc1cc(F)ccc1S(=O)(=O)N1C[C@H](Oc2ccc(Cl)cc2)[C@](O)(CO)C1 [Example 155, 2-(((3R,4S)-4-(4-chlorophenoxy)-3-hydroxy-3-(hydroxymethyl)pyrrolidin-1-yl)sulfonyl)-5-fluorobenzonitrile]
22 | 8.00 to 10.00 | N#Cc1cc(OCC(F)(F)F)c(O[C@H]2CN(S(=O)(=O)c3ccc(C(F)(F)F)cc3C#N)C[C@@]2(O)CO)cc1F [Example 157, 4-(((3S,4R)-1-((2-cyano-4-(trifluoromethyl)phenyl)sulfonyl)-4-hydroxy-4-(hydroxymethyl)pyrrolidin-3-yl)oxy)-2-fluoro-5-(2,2,2-trifluoroethoxy)benzonitrile]
23 | 8.00 to 10.00 | CC(C)Oc1cc(C#N)c(F)cc1O[C@H]1CN(S(=O)(=O)c2ccc(C(F)(F)F)cc2C#N)C[C@@]1(O)CO [Example 161, 4-(((3S,4R)-1-((2-cyano-4-(trifluoromethyl)phenyl)sulfonyl)-4-hydroxy-4-(hydroxymethyl)pyrrolidin-3-yl)oxy)-2-fluoro-5-isopropoxybenzonitrile]
24 | 8.00 to 10.00 | N#Cc1cc(OCc2ccccc2)c(O[C@H]2CN(S(=O)(=O)c3ccc(C(F)(F)F)cc3C#N)C[C@@]2(O)CO)cc1F [Example 163, 5-(benzyloxy)-4-(((3S,4R)-1-((2-cyano-4-(trifluoromethyl)phenyl)sulfonyl)-4-hydroxy-4-(hydroxymethyl)pyrrolidin-3-yl)oxy)-2-fluorobenzonitrile]
25 | 8.00 to 10.00 | CCCOc1cc(C#N)ccc1O[C@H]1CN(S(=O)(=O)c2ccc(C(F)(F)F)cc2C#N)C[C@@]1(O)CO [Example 166, 2-(((3R,4S)-4-(4-cyano-2-propoxyphenoxy)-3-hydroxy-3-(hydroxymethyl)pyrrolidin-1-yl)sulfonyl)-5-(trifluoromethyl)benzonitrile]
26 | 7.00 to 8.00 | N#Cc1ccc(S(=O)(=O)N2C[C@H](Oc3ccc(C#N)cc3OCC(F)(F)F)[C@](O)(CO)C2)cc1 [Example 172, 4-(((3S,4R)-1-((4-cyanophenyl)sulfonyl)-4-hydroxy-4-(hydroxymethyl)pyrrolidin-3-yl)oxy)-3-(2,2,2-trifluoroethoxy)benzonitrile]
27 | 8.00 to 10.00 | N#Cc1cc(OCC(F)(F)F)c(O[C@H]2CN(S(=O)(=O)c3ccccc3C#N)C[C@@]2(O)CO)cc1F [Example 173, 4-(((3S,4R)-1-((2-cyanophenyl)sulfonyl)-4-hydroxy-4-(hydroxymethyl)pyrrolidin-3-yl)oxy)-2-fluoro-5-(2,2,2-trifluoroethoxy) benzonitrile]
28 | 8.00 to 10.00 | N#Cc1ccc(S(=O)(=O)N2C[C@H](Oc3cc(F)c(C#N)cc3OCC(F)(F)F)[C@](O)(CO)C2)cn1 [Example 174, 5-(((3R,4S)-4-(4-cyano-5-fluoro-2-(2,2,2-trifluoroethoxy)phenoxy)-3-hydroxy-3-(hydroxymethyl)pyrrolidin-1-yl)sulfonyl) picolinonitrile]
